In patent US20200405881A1, “CELL BASED METHODS AND COMPOSITIONS FOR THERAPEUTIC AGENT DELIVERY AND TREATMENTS USING SAME” (UNIVERSITY OF WASHINGTON, priority 2017, published 2020):

Experiments:
macrophages [1] = assay: Toxicity of drugamers to macrophages (Examples 5 and 6); type: cell-based; conditions: 50 or 500 ng/mL drugamer; data not shown
Procedure: Methods: CD14+ monocytes were isolated from PBMCs and differentiated to macrophages in RPMI/10% FBS with 10 ng/mL GM-CSF. After 6 days in culture, cells were replated into a 12 well dish, with 250K cells/well. The following day, they were mock transduced or transduced with vector control (EGFRt) or membrane-bound anti-FITC:EGFRt. Media was changed every 3 days. Seven days after transduction, all cells were washed twice with PBS and treated with either 50 or 500 ng/mL drugamer, which contained FITC and CMP8, in PBS. After a 15 min incubation at 37° C., cells were washed twice with PBS and one group of cells (“15 min”) was non-enzymatically detached with VERSENE™ and immediately fixed for flow with 2% paraformaldehyde. After the PBS wash, the other group of cells was allowed to recover in RP10 for 72 hours before detaching/fixing
Methods: CD14+ monocytes were isolated from PBMCs and differentiated to macrophages in RPMI/10% FBS with 10 ng/mL GM-CSF. After 6 days in culture, cells were replated into a 12 well dish, with 250K cells/well. The following day, they were mock transduced or transduced with vector control (EGFRt) or membrane-bound anti-FITC:EGFRt. Media was changed every 3 days. […] Rhodamine fluorescence was measured, indicating the presence of drugamer following 10 days in culture (data not shown).

primary macrophages = assay: Free resiquimod and galunisertib testing, toxicity (Example 9); type: cell-based, human; conditions: Resiquimod 1 ug/ml and/or Galunisertib 56 nM, alone or in combination
Procedure: (§1) Methods: CD14+ monocytes were isolated from PBMCs and differentiated to macrophages in RPMI/10% FBS with 10 ng/mL GM-CSF or 25 ng/ml M-CSF for 6 days. Macrophages were incubated with Resiquimod (1 ug/ml) and/or Galunisertib (56 nM) for 1 hour, then stimulated with 1 ug LPS/100U/ml IFNg to determine impact on viability using flow cytometry of cells and pro-inflammatory responsiveness using a 30plex for human cytokines on cell supernatant 24 hours after stimulation. Expression of bFGF, IL-1B, GCSF, IL10, 1L^13, IL6, IL12, Rantes, MIP1a, GMCSF, MIP1B, MCP1, IL15, EGF, IL5, HGF, VEGF, IFNg, IFNa, IL1RA, TNFa, IL7, IP10, IL2R, MIG, and IL8 was measured in the following treatment groups: M1 control, M1 resiquimod, M1 galunisertib, M1 resiquimod+galunisertib, M1 LPS/IFNg+resiquimod, M1 LPS/IFNg+galunisertib, M1 LPS/IFNg+resiquimod, +galunisertib, M2 control, M2 resiquimod, M2 galunisertib, M2 resiquimod+galunisertib, M2 LPS/IFNg+resiquimod, M2 LPS/IFNg+galunisertib, and M LPS/IFNg+resiquimod, +galunisertib (data not shown). […]

macrophages [2] = assay: Free resiquimod and galunisertib testing, cytokines and phenotype (Example 9); type: cell-based, human; conditions: Galunisertib 56 nM for 1 hour, on its own
Procedure: as §1

M2 polarized macrophages = assay: Free PI103 testing, 30plex cytokines, M2 macrophages (Example 8); type: cell-based, human; conditions: 500 nM PI103 for 1 hour, then LPS/IFNg, 24 hours
Procedure: (§2) Methods: CD14+ monocytes were isolated from PBMCs and differentiated to macrophages in RPMI/10% FBS with 10 ng/mL GM-CSF or 25 ng/ml M-CSF for 6 days. Macrophages were incubated with 500 nM PI103 for 1 hour, then stimulated with 1 ug LPS/100U/ml IFNg to determine impact on viability using flow cytometry of cells and pro-inflammatory responsiveness using a 30plex for human cytokines on cell supernatant 24 hours after stimulation. The expression of MIP1B, MCP1, IL15, EGF, HGF, VEGF, IFNg, IFNa, IL1RA, TNFa, IL7, IP10, IL2R, MIG, IL4, and IL8 was determined for each of the following groups: M1 control, M1 PI103, M1 LPS/IFNg, M1 PI103 LPS/IFNg, M2 control, M2 PI103, M2 LPS/IFNg, and M2 PI103 LPS/IFNg (data not shown). A summary of the significant data when using t-test to compare between treatment groups with and without Pi103 is shown for M1 macrophages in FIG. 22A and M2 macrophages in FIG. 22B.

[3] = system: MCSF polarized M2 macrophages; assay: Free PI103 testing, flow cytometry of surface markers (Example 8); type: cell-based, human; conditions: 500 nM PI103
Procedure: as §2, with “22B. Flow cytometry staining included Live/Dead, HLA-DR, CD11b and CD14 to confirm expression of macrophage surface markers and viability (data not shown), as well as CD206 (anti-inflammatory macrophage marker; data not shown), CD163 (anti-inflammatory macrophage marker; data not shown), CD80 and CD86 (costimulatory molecules; data not shown).” for “22B.”

M1 polarized macrophages = assay: Free PI103 testing, 30plex cytokines, M1 macrophages (Example 8); type: cell-based, human; conditions: 500 nM PI103 for 1 hour, then LPS/IFNg, 24 hours
Procedure: as §2

[4] = system: CCR expressing CAR T cells; assay: Exhaustion marker expression on CAR T cells cultured with macrophage derived IL-7 (Example 10); type: cell-based; conditions: in contrast to culture with recombinant IL-7, FIG. 23C
Procedure: Methods: CD14+ monocytes were isolated from PBMCs and differentiated to macrophages in RPMI/10% FBS with 10 ng/mL GM-CSF. After 6 days in culture, cells were replated into a 12 well dish, with 250K cells/well. The following day, they were mock transduced or transduced with vector control (EGFRt) or a vector encoding constitutive IL-7 under the control of the EF1a promoter. Autologous T cells were transduced with a chimeric cytokine receptor shown on FIG. 23A, and an anti-EGFRvIII specific CAR. T cells were magnetically separated based on CD4 and CD8 expression and expanded in vitro using Miltenyi CD3/CD28 beads and frozen. CFSE Cell Trace labeled CD4 or CD8 T cells were used in proliferation assays in response to IL-7 transduced macrophages.

O=C1CCC2(Cc3ccc(Cl)cc3)Cc3cc(O)ccc3C2=C1c1ccc(OCCN2CCCCC2)cc1 (stereo not shown) [CMP8, 9a-(4-Chlorobenzyl)-7-hydroxy-4-[4-(2-piperidin-1-ylethoxy)phenyl]-1,2,9,9a-tetrahydro-3H-fluoren-3-one]
toxicity to macrophages (macrophages [1]): toxicity is linked to CMP8

Cc1cccc(-c2nn3c(c2-c2ccnc4ccc(C(N)=O)cc24)CCC3)n1 [Galunisertib]
toxicity to primary macrophages (primary macrophages): neither molecule alone or in combination is toxic to primary macrophages
phenotypic or functional response to stimulation (macrophages [2]): little impact on phenotypic or functional response to stimulation

Oc1cccc(-c2nc(N3CCOCC3)c3oc4ncccc4c3n2)c1 [PI103]
pro-inflammatory TNFalpha production (M2 polarized macrophages): increase
antigen presentation surface proteins CD80 and CD86 [3]: increase
surface markers consistent with an anti-inflammatory phenotype [3]: decrease
pro-inflammatory cytokine production (M1 polarized macrophages): decrease

CCOCc1nc2c(N)nc3ccccc3c2n1CC(C)(C)O [resiquimod]
toxicity to primary macrophages (primary macrophages): neither molecule alone or in combination is toxic to primary macrophages

B1: macrophage derived IL-7: IL-7 produced by macrophages transduced with a vector encoding constitutive IL-7 (protein, UniProt P13232 26-177, looked up)
Interleukin-7: DCDIEGKDGKQYESVLMVSIDQLLDSMKEIGSNCLNNEFNFFKRHICDANKEGMFLFRAARKLRQFLKMNSTGDFDLHLLKVSEGTTILLNCTGQVKGRKPAALGEAQPTKSLEENKSLKEQKKLNDLCFLKRLLQEIKTCWNKILMGTKEH
expression of exhaustion markers TIM3, PD-1, and CD95 [4]: reduced
expression of exhaustion markers TIM3, PD-1, and CD95 ([4]; listed as GEM derived IL-7): reduces exhaustion marker expression
